A short description of one data set: in vivo. Also noted: species or system Sprague Dawley rats. Conditions: rat. The protocol:
Eighteen male Sprague Dawley rats (Charles River) weighing 217-263 g and aged 8-9 weeks were administered the test article, MGBG as either a single bolus intravenous dose of 1 mg/kg (Group 1) or as a single oral gavage dose of 10 mg/kg. A cohort of three animals was sacrificed via CO2 inhalation anesthesia after final blood collection at each of T=2, 4, 12, 24, 36, and 48 hours post-dose. Dose formulation analysis verified administered dose solutions as within 17% of targeted concentration of 10 mg/kg.
Analysis was performed by LC/MS/MS. Pharmacokinetic analyses were performed on the mean MGBG plasma concentration versus time data using the non-compartmental approach (linear trapezoidal rule for AUC calculations). The WinNonlin sparse sampling tool was used for PK calculations. All samples reported as BLQ (Below the Limit of Quantitation, in plasma 2.50 ng/mL) were changed to 0.00 ng/mL for the purpose of analysis.
Additionally, in rats dosed as above with single oral administration of MGBG at 10 mg/kg, immediately following the plasma sample collection for each cohort (i.e., 2, 4, 12, 24, 36, and 48 hours after dosing), three rats were sacrificed, and spleen and liver tissues collected and flask frozen. […] This is consistent with a selective uptake mechanism for MGBG. Without wishing to be bound by theory, other SAMDC inhibitors which are selectively uptaken by cells may, like MGBG, be useful in the methods and compositions disclosed herein.

Data set [1] relates to MOG-induced experimental autoimmune encephalomyelitis (EAE). Put plainly: Third MOG EAE protocol (MGBG, fingolimod and combination). The class given is in vivo, C57BL/6 mice. As to conditions: MGBG 30 mpk twice-daily, fingolimod 0.1 mpk once-daily, or both. The source says:
An experimental murine model of multiple sclerosis employing a myelin oligodendrocyte glycoprotein (MOG) peptide to induce experimental autoimmune encephalomyelitis (EAE) was employed to determine the efficacy of MGBG in preventing and treating that disease. Because of its many similarities to MS, EAE is commonly used to study pathogenesis of autoimmunity, CNS inflammation, demyelination, cell trafficking, and tolerance induction. EAE is characterized by paralysis (in some models the paralysis is remitting-relapsing), CNS inflammation and demyelination. EAE is mediated primarily by dendritic cells, myelin-specific T cells (e.g. Th1 and Th17), and M1 macrophages. B cells may also play a role in some models of EAE. Body weight also tracks disease progression. EAE is induced in C57BL/6 mice by immunization with MOG35-55 or MOG1-125 in CFA emulsion followed by administration of pertussis toxin (PTX) in PBS. The emulsion provides antigen which initiates expansion and differentiation of MOG-specific autoimmune T cells. PTX enhances EAE development by providing additional adjuvant and facilitating entrance of autoimmune T cells into the CNS.
Chronic EAE develops in C57BL/6 mice after immunization with an emulsion of MOG35-55/CFA or MOG1-125/CFA followed by injection of pertussis toxin. This model is used to test the potential of compounds to prevent or mitigate EAE disease. It can be run with the compound dosed from the time of immunization (prophylactic treatment), or with the aim of reversing the course of disease and facilitating recovery by dosing the compound from the time of EAE onset (therapeutic treatment). The model uses female C57BL/6 mice of age 10 to 14 weeks at the start of the study. Typically, EAE develops 8-18 days after immunization. EAE development is usually followed for 4 weeks (28 days) after immunization.
Clinically, EAE progression is scored on a scale of 0 to 5, wherein each score represents the following clinical observations:
Inflammatory foci of approximately 20 cells were counted in each H&E stained section. When inflammatory infiltrates consisted of more than 20 cells, an estimate was made of how many foci of 20 cells were present.
The demyelination score represents an estimate of demyelinated area for each section as follows:
Ten week old female C57BL/6 mice weighing 18-23 g (Taconic Farms) were divided into four groups: mock immunized (n=3) and three MOG-immunized groups receiving MGBG at 30 mpk BID (as the di-HCl monohydrate with a correction factor of 1.49), […] dose, or 0.9% saline vehicle BID (n=12 each). […]

Where [2] appears, read: male, Sprague Dawley, iv, 1 mg/kg.
The mark [3] stands for this setting: male, Sprague Dawley, po, 10 mg/kg.

Structures are written as SMILES. Entries after “also recorded” stand apart in the source; their conditions may differ.

The record followed here is US10085955B2, “Methods and compositions for treatment of demyelinating diseases” (Pathologica LLC, priority 2013, dated 2018).

Broadly, the Kp is the ratio of the level in a tissue or fluid to that in plasma or blood.

In the data set “in vivo” (setting [2]), `CC(/C=N/NC(=N)N)=N\NC(=N)N` [MGBG, 1,1′ [methylethanediylidene]dinitrilodiguanidine] returned a Clobs of 13.4 mL/min/kg and a VSSobs of 15.4 L/kg. In the data set “in vivo” (setting [3]), the Clobs amounted to 3.18 mL/min/kg, the Vd is reported as 15.4 L/kg and the “time point through which MGBG levels were measurable in plasma” value was found to be 12 h. This molecule gave a partition ratio (Kp) in the data set “in vivo” (male, Sprague Dawley, po, 10 mg/kg, greater exposure (AUCall) of liver tissue compared to plasma) of 160. In “in vivo” (male, Sprague Dawley, po, 10 mg/kg, greater exposure (AUCall) of spleen tissue compared to plasma), the Kp came to 9.3. This molecule yielded a partition ratio (Kp) in the data set “in vivo” (male, Sprague Dawley, po, 10 mg/kg, greater exposure (Cmax) of liver tissue compared to plasma) of 120. This molecule showed a Kp in the data set “in vivo” (male, Sprague Dawley, po, 10 mg/kg, greater exposure (Cmax) of spleen tissue compared to plasma) of 4. Further, in the data set “in vivo”, the “clinical findings after dosing” value is “Abnormal clinical findings were not noted”. For the same molecule, the “clinical scores / development of EAE” value in data set [1] (third 28-day study) is “suppressed EAE comparably to 0.1 mpk fingolimod; also recorded: equivalently efficacious in preventing EAE development”. Further, in data set [1] (third study), the “cellular apoptosis in spinal cord” value is “equivalently efficacious in reducing apoptosis”, the “number of inflammatory foci in spinal cord” value is on record as “equivalently efficacious in reducing the number of inflammatory foci” and the spinal cord demyelination result was “equivalently efficacious in reducing demyelination”.
